The subject of experiment [1] is S. enteritis S1. As to the kind of experiment: organism not typed. The format is cell-based. The conditions noted are these: Table 1, S. enteritis S1, broth microdilution. The protocol: (§1) Bacterial strains and growth conditions: All Gram-negative and Gram-positive bacterial strains (Supplementary Table S8) were cultured in Luria-Bertani (LB) or trypticase soy broth (TSB) agar plates, respectively, and incubated overnight at 37 °C unless specifically indicated. A single colony of the tested bacterial strains was inoculated into medium broth with shaking at 220 rpm for further experiments.
(§2) Minimal inhibitory concentrations: Antimicrobial susceptibility testing was performed by broth microdilution method for AMPs against Gram-positive and Gram-negative pathogens above mentioned, following the methods of document CLSI M100-ED34.[43] The MICs were defined as the lowest concentrations that inhibit visible growth of the tested bacteria. E. coli ATCC 25,922 and S. aureus ATCC 29,213 were served as quality controls.
For orientation: In broth dilution the organism is exposed to a series of concentrations in liquid medium.

In experiment [2] the test system is K. pneumoniae 9-1. Description: microbe, parasite or virus in culture. The format is cell-based. The note with it: Table 1, K. pneumoniae 9-1, broth microdilution. The protocol:
as §1, §2

Experiment [3] concerns P. aeruginosa PAO1. Description: microbe, parasite or virus in culture. The format is cell-based. The note with it: Table 1, P. aeruginosa PAO1, broth microdilution. The protocol: as §1, §2
The subject of experiment [4] is A. baumannii 7979. As to the kind of experiment: microbe, parasite or virus in culture. In kind it is cell-based. The conditions noted are these: Table 1, A. baumannii 7979, broth microdilution. The protocol: as §1, §2
The subject of experiment [5] is P. aeruginosa PA14. As to the kind of experiment: microbe, parasite or virus in culture. In kind it is cell-based. The protocol:
as §1, §2

The subject of experiment [6] is E. coli ATCC 25922. Description: microbe, parasite or virus in culture. The format is cell-based. The protocol:
as §1, §2

Experiment [7] relates to A. baumannii AB11. As to the kind of experiment: microbe, parasite or virus in culture. In kind it is cell-based. The protocol: as §1, §2
In experiment [8] the test system is E. faecalis ES01. As to the kind of experiment: microbe, parasite or virus in culture. The format is cell-based. The note with it: Enterococcus faecalis; Table 1; E. faecalis ES01; ermB, vanB; broth microdilution; read-out: MIC. The protocol:
as §1, §2

Experiment [9] relates to S. agalactiae DL03. As to the kind of experiment: microbe, parasite or virus in culture. In kind it is cell-based. The conditions noted are these: Streptococcus agalactiae; Table 1; S. agalactiae DL03; ermB; broth microdilution; read-out: MIC. The protocol:
as §1, §2

In experiment [10] the test system is S. aureus YZSA-24. As to the kind of experiment: microbe, parasite or virus in culture. The format is cell-based. The conditions noted are these: Staphylococcus aureus, YZSA24; Table 1; S. aureus YZSA-24; ermC, mecA; broth microdilution; read-out: MIC. The protocol: as §1, §2
The subject of experiment [11] is S. pyogenes DL02. Description: microbe, parasite or virus in culture. In kind it is cell-based. The conditions noted are these: Streptococcus pyogenes; Table 1; S. pyogenes DL02; ermB; broth microdilution; read-out: MIC. The protocol:
as §1, §2

Experiment [12] has as its system E. faecium HFY01. As to the kind of experiment: microbe, parasite or virus in culture. In kind it is cell-based. The note with it: Enterococcus faecium; Table 1; E. faecium HFY01; broth microdilution; read-out: MIC. The protocol: as §1, §2
Experiment [13] deals with S. aureus M92-1. Description: microbe, parasite or virus in culture. The format is cell-based. The note with it: Staphylococcus aureus, M921; Table 1; S. aureus M92-1; ermB, tetL, optrA; broth microdilution; read-out: MIC. The protocol: as §1, §2
Experiment [14] relates to E. faecium MC38. Description: microbe, parasite or virus in culture. The conditions noted are these: Enterococcus faecium; Table 1; E. faecium MC38; ermB, optrA; broth microdilution; read-out: MIC. In kind it is cell-based. The protocol: as §1, §2
The subject of experiment [15] is S. suis SH0918. Description: microbe, parasite or virus in culture. In kind it is cell-based. The note with it: Streptococcus suis; Table 1; S. suis SH0918; ermB, tetO, optrA; broth microdilution; read-out: MIC. The protocol:
as §1, §2

The test system of experiment [16] is E. faecium QF31. As to the kind of experiment: microbe, parasite or virus in culture. The note with it: Enterococcus faecium; Table 1; E. faecium QF31; ermB, cfr; broth microdilution; read-out: MIC. In kind it is cell-based. The protocol:
as §1, §2

For experiment [17], the system named is E. faecalis JH2-2. Description: microbe, parasite or virus in culture. The format is cell-based. The conditions noted are these: Enterococcus faecalis, JH22; Table 1; E. faecalis JH2-2; broth microdilution; read-out: MIC. The protocol:
as §1, §2

The test system of experiment [18] is S. aureus M147-2. As to the kind of experiment: microbe, parasite or virus in culture. The format is cell-based. The note with it: Staphylococcus aureus, M1472; Table 1; S. aureus M147-2; ermB, tetL, cfr; broth microdilution; read-out: MIC. The protocol:
as §1, §2

Experiment [19] concerns S. aureus YZSA-21. Description: microbe, parasite or virus in culture. In kind it is cell-based. The conditions noted are these: Staphylococcus aureus, YZSA21; Table 1; S. aureus YZSA-21; ermC; broth microdilution; read-out: MIC. The protocol: as §1, §2
Experiment [20] relates to E. faecalis J2. Description: microbe, parasite or virus in culture. The format is cell-based. The conditions noted are these: Enterococcus faecalis; Table 1; E. faecalis J2; ermB, optrA; broth microdilution; read-out: MIC. The protocol: as §1, §2
Experiment [21] concerns S. aureus YZSA-15. As to the kind of experiment: microbe, parasite or virus in culture. The format is cell-based. The note with it: Staphylococcus aureus, YZSA15; Table 1; S. aureus YZSA-15; ermC, vanB; broth microdilution; read-out: MIC. The protocol:
as §1, §2

The subject of experiment [22] is E. faecalis SF23-1. As to the kind of experiment: microbe, parasite or virus in culture. In kind it is cell-based. The conditions noted are these: Enterococcus faecalis, SF231; Table 1; E. faecalis SF23-1; ermB, tetL, cfr; broth microdilution; read-out: MIC. The protocol: as §1, §2
The subject of experiment [23] is S. suis P1/7. As to the kind of experiment: microbe, parasite or virus in culture. The note with it: Streptococcus suis, P1/7. The protocol:
as §1
Minimal inhibitory concentrations: Antimicrobial susceptibility testing was performed by broth microdilution method for AMPs against Gram-positive and Gram-negative pathogens above mentioned, following the methods of document CLSI M100-ED34.[43] The MICs were defined as the lowest concentrations that inhibit visible growth of the tested bacteria.

Experiment [24] deals with S. aureus ATCC 29213. Description: microbe, parasite or virus in culture. The format is cell-based. The note with it: Staphylococcus aureus, ATCC29213; Table 1; S. aureus ATCC 29213; broth microdilution, CLSI M100-ED34; read-out: MIC.
Where [25] appears, read: Klebsiella pneumoniae, 91, read-out: MIC.
[26] abbreviates: Pseudomonas aeruginosa, read-out: MIC.
Where [27] appears, read: Acinetobacter baumannii, read-out: MIC.
[28] abbreviates: Pseudomonas aeruginosa, Table 1, P. aeruginosa PA14, broth microdilution, read-out: MIC.
The mark [29] stands for this setting: Escherichia coli, ATCC25922, Table 1, E. coli ATCC 25922, broth microdilution, read-out: MIC.
Where [30] appears, read: Acinetobacter baumannii, Table 1, A. baumannii AB11, broth microdilution, read-out: MIC.

Experimental findings from PMC12203862, “BroadAMP-GPT: AI-Driven generation of broad-spectrum antimicrobial peptides for combating multidrug-resistant ESKAPE pathogens” (Gut Microbes, 2025) are described below.

Converted amounts (≈) assume the structure as drawn. Read-outs that look alike come from different tables or passages of the source. Bounds are passed on as bounds.

`C[C@H]1[C@H](NC(=O)/C(=N\OC(C)(C)C(=O)O)c2csc(N)n2)C(=O)N1S(=O)(=O)O` [ATM, Aztreonam]: the MIC was 2 µg/mL (≈ 4.59 µM) in experiment [1] (read-out: MIC); more than 64 µg/mL in experiment [2] (setting [25]); 2 µg/mL (≈ 4.59 µM) in [3] (setting [26]); more than 64 µg/mL in experiment [4] (setting [27]); 4 µg/mL (≈ 9.19 µM) in experiment [5] (setting [28]); 0.25 µg/mL (≈ 0.574 µM) in experiment [6] (setting [29]). For the same compound, the MIC in experiment [7] (setting [30]) was more than 64 µg/mL.

Take `C[C@@H](O)[C@H]1C(=O)N2C(C(=O)O)=C(S[C@@H]3CN[C@H](C(=O)N(C)C)C3)[C@H](C)[C@H]12` [MEM, Meropenem]: the MIC was 0.25 µg/mL (≈ 0.652 µM) in [1] (read-out: MIC); 4 µg/mL (≈ 10.4 µM) in experiment [2] (setting [25]); 0.5 µg/mL (≈ 1.3 µM) in experiment [3] (setting [26]); more than 64 µg/mL in experiment [4] (setting [27]); 0.5 µg/mL (≈ 1.3 µM) in experiment [5] (setting [28]); 0.25 µg/mL (≈ 0.652 µM) in experiment [6] (setting [29]). In addition, the MIC in experiment [7] (setting [30]) was less than 0.06 µg/mL.

As for `O=C(O)c1cn(C2CC2)c2cc(N3CCNCC3)c(F)cc2c1=O` [CIP, ciprofloxacin], the MIC worked out at 2 µg/mL (≈ 6.04 µM) in experiment [8]; 16 µg/mL (≈ 48.3 µM) in experiment [9]; 4 µg/mL (≈ 12.1 µM) in experiment [10]; 1 µg/mL (≈ 3.02 µM) in experiment [11]; 1 µg/mL (≈ 3.02 µM) in experiment [12]; 16 µg/mL (≈ 48.3 µM) in [13]. Also, the MIC in [14] stood at 8 µg/mL (≈ 24.1 µM); in [15], 16 µg/mL (≈ 48.3 µM); in experiment [16], 2 µg/mL (≈ 6.04 µM); in [17] it was 0.5 µg/mL (≈ 1.51 µM); in experiment [18] it was 32 µg/mL (≈ 96.6 µM); in [19], 0.5 µg/mL (≈ 1.51 µM). Moreover, the results for the MIC in experiment [20], in experiment [21] and in experiment [22] were 8 µg/mL (≈ 24.1 µM), 0.25 µg/mL (≈ 0.754 µM) and 16 µg/mL (≈ 48.3 µM), respectively.

On to `C[C@H]1COc2c(N3CCN(C)CC3)c(F)cc3c(=O)c(C(=O)O)cn1c23` [LVX, Levofloxacin], for which the MIC in experiment [1] (read-out: MIC) was 0.5 µg/mL (≈ 1.38 µM); in experiment [2] (setting [25]), more than 64 µg/mL; in experiment [3] (setting [26]) it was 0.5 µg/mL (≈ 1.38 µM); in experiment [4] (setting [27]), more than 64 µg/mL; in [5] (Pseudomonas aeruginosa, PA14) it was 0.125 µg/mL (≈ 0.346 µM); in [6] (Escherichia coli, ATCC25922), 0.125 µg/mL (≈ 0.346 µM). Besides, the MIC in [7] (Acinetobacter baumannii, AB11) turned out to be 0.125 µg/mL (≈ 0.346 µM).

On to `CC(=O)NC[C@H]1CN(c2ccc(N3CCOCC3)c(F)c2)C(=O)O1` [LZD, linezolid], for which the MIC was 2 µg/mL (≈ 5.93 µM) in experiment [8]; 1 µg/mL (≈ 2.96 µM) in experiment [9]; 0.5 µg/mL (≈ 1.48 µM) in [10]; less than 0.06 µg/mL in experiment [11]; 2 µg/mL (≈ 5.93 µM) in experiment [12]; 8 µg/mL (≈ 23.7 µM) in experiment [13]. Moreover, the MIC is 2 µg/mL (≈ 5.93 µM) in experiment [14]; 8 µg/mL (≈ 23.7 µM) in [15]; 2 µg/mL (≈ 5.93 µM) in [16]; 0.5 µg/mL (≈ 1.48 µM) in experiment [17]; 8 µg/mL (≈ 23.7 µM) in experiment [18]; 1 µg/mL (≈ 2.96 µM) in [19]. For the same compound, the MIC in [20] is 8 µg/mL (≈ 23.7 µM); in experiment [21], 0.5 µg/mL (≈ 1.48 µM); in experiment [22], 16 µg/mL (≈ 47.4 µM); in [23], 0.125 µg/mL (≈ 0.371 µM); in [24], 1 µg/mL (≈ 2.96 µM).

Take `CC[C@H]1OC(=O)[C@H](C)[C@@H](O[C@H]2C[C@@](C)(OC)[C@@H](O)[C@H](C)O2)[C@H](C)[C@@H](O[C@@H]2O[C@H](C)C[C@H](N(C)C)[C@H]2O)[C@](C)(O)C[C@@H](C)C(=O)[C@H](C)[C@@H](O)[C@]1(C)O` [ERY, Erythromycin]: the MIC is more than 64 µg/mL in [8]; more than 64 µg/mL in experiment [9]; more than 63 µg/mL in experiment [10]; more than 64 µg/mL in experiment [11]; 2 µg/mL (≈ 2.73 µM) in experiment [12]; more than 64 µg/mL in experiment [13]. Also, the MIC in [14] is more than 64 µg/mL; in experiment [15], more than 64 µg/mL; in [16], more than 64 µg/mL; in [17], 0.25 µg/mL (≈ 0.341 µM); in experiment [18] it was more than 64 µg/mL; in experiment [19] it was more than 64 µg/mL. For the same compound, the MIC in experiment [20] is more than 64 µg/mL; in [21] it was more than 64 µg/mL; in experiment [22], more than 64 µg/mL; in experiment [23] it was 0.125 µg/mL (≈ 0.17 µM); in experiment [24], 1 µg/mL (≈ 1.36 µM).

On to colistin [CST], for which the MIC was 0.5 µg/mL in [1]; 1 µg/mL in experiment [2]; 0.125 µg/mL in experiment [3]; less than 0.06 µg/mL in experiment [4]; less than 0.06 µg/mL in experiment [5] (Table 1, P. aeruginosa PA14, broth microdilution); 1 µg/mL in [6] (Table 1, E. coli ATCC 25922, broth microdilution). Further, the MIC in experiment [7] (Table 1, A. baumannii AB11, broth microdilution) stood at 8 µg/mL.
